Experimental data reported in the supplement of paper PMC12613149.

Assays:
[1] = collision cross section (TIMS, N2 drift gas) of the primary ion; higher = larger gas-phase ion size
[2] = reversed-phase LC retention time (C18, 15 min MeOH gradient); higher = more hydrophobic / later elution
[3] = ionization mode: ESI+, ion species: [M+H]+
[4] = ionization mode: ESI-, ion species: [M-H]-

In the case of `CC(=O)Nc1c(C)n(C)n(-c2ccccc2)c1=O` [N-Acetyl-4-aminoantipyrine], the collision cross section [1, 3] is reported as 154.74 Å² and the “reversed-phase LC retention time” value [2, 3] is reported as 7.85 min.

With `CCn1cc(C(=O)O)c(=O)c2cc(F)c(N3CCNCC3)cc21` [Norfloxacin] the collision cross section [1, 3] was 173.95 Å² and the “reversed-phase LC retention time” value [2, 3] was 8.08 min.

In the case of `CN(C)Cc1cc(C(C)(C)C)c(O)c(C(C)(C)C)c1` [2,6-Di-tert-Butyl-4-(dimethylamino)methylphenol], the collision cross section [1, 3] is reported as 176.35 Å², the collision cross section [1, 4] is reported as 173.06 Å² and the “reversed-phase LC retention time” value [2, 3] is reported as 12.7 min. For the same compound, the “reversed-phase LC retention time” value [2, 4] was 17.1 min.

For `O=C(c1ccc(OCCN2CCCCC2)cc1)c1c(-c2ccc(O)cc2)sc2cc(O)ccc12` [Raloxifene], the collision cross section [1, 3] was 216.23 Å², the collision cross section [1, 4] was 213.83 Å² and the “reversed-phase LC retention time” value [2, 3] was 11.3 min. The “reversed-phase LC retention time” value [2, 4] was 15.4 min.

In the case of `CCc1cccc(C)c1N(C(=O)C(=O)O)C(C)COC` (stereo not given) [Metolachlor OA], the collision cross section [1, 3] is reported as 160 Å², the collision cross section [1, 4] is reported as 165.62 Å² and the “reversed-phase LC retention time” value [2, 3] is reported as 12.7 min. The “reversed-phase LC retention time” value [2, 4] was 11.9 min.

For `Cc1ccc(S(=O)(=O)O)c(C)c1` [m-Xylene-4-sulfonic acid], the collision cross section [1, 4] was 136.84 Å² and the “reversed-phase LC retention time” value [2, 4] was 7.68 min.

With `CC(C)OC(=O)CCCCCCCCC(=O)OC(C)C` [Diisopropyl sebacate] the collision cross section [1, 3] was 172.78 Å² and the “reversed-phase LC retention time” value [2, 3] was 17 min.

For `CCN1CCN(c2cc3c(cc2F)c(=O)c(C(=O)O)cn3C2CC2)CC1` [Enrofloxacin], the collision cross section [1, 3] was 186.48 Å² and the “reversed-phase LC retention time” value [2, 3] was 8.4 min.

With `O=c1c(-c2ccc(O)cc2)coc2cc(O)ccc12` [Daidzein] the collision cross section [1, 3] was 155.18 Å², the collision cross section [1, 4] was 157.58 Å² and the “reversed-phase LC retention time” value [2, 3] was 11.1 min. For the same compound, the “reversed-phase LC retention time” value [2, 4] was 9.78 min.

With `CCCCC(C#N)(Cn1cncn1)c1ccc(Cl)cc1` (stereo not given) [Myclobutanil] the collision cross section [1, 3] was 175 Å² and the “reversed-phase LC retention time” value [2, 3] was 14.5 min.

For `CC(C)(C)C(O)(CCc1ccc(Cl)cc1)Cn1cncn1` (stereo not given) [Tebuconazole], the collision cross section [1, 3] was 168.02 Å² and the “reversed-phase LC retention time” value [2, 3] was 15.5 min.

For `Cc1cc(=O)n(-c2ccccc2)n1C` [Phenazone], the collision cross section [1, 3] was 138.2 Å² and the “reversed-phase LC retention time” value [2, 3] was 8.8 min.

In the case of `CC12CCC(=O)C=C1C=CC1[C@@H]2CCC2(C)[C@H]1CCC21CCC(=O)O1` (stereo not given in full) [Canrenone], the collision cross section [1, 3] is reported as 186.86 Å² and the “reversed-phase LC retention time” value [2, 3] is reported as 14.2 min.

With `N[C@@H](Cc1cc(I)c(Oc2cc(I)c(O)c(I)c2)c(I)c1)C(=O)O` [L-Thyroxine] the collision cross section [1, 3] was 217.22 Å², the collision cross section [1, 4] was 208.7 Å² and the “reversed-phase LC retention time” value [2, 3] was 14 min. For the same compound, the “reversed-phase LC retention time” value [2, 4] was 13.4 min.

For `CC/C(=C(\c1ccccc1)c1ccc(OCCN(C)C)cc1)c1ccccc1` [Tamoxifen], the collision cross section [1, 3] was 198.29 Å² and the “reversed-phase LC retention time” value [2, 3] was 15.7 min.

With `CCCC(C)C1(CC)C(=O)NC(=O)NC1=O` (stereo not given) [Pentobarbital] the collision cross section [1, 4] was 150.46 Å² and the “reversed-phase LC retention time” value [2, 4] was 12.2 min.

For `COC(=O)Nc1nc2ccccc2[nH]1` [Carbendazim], the collision cross section [1, 3] was 137.16 Å² and the “reversed-phase LC retention time” value [2, 3] was 7.33 min.

With `CON(C)C(=O)Nc1ccc(Br)cc1` [Metobromuron] the collision cross section [1, 3] was 148.37 Å² and the “reversed-phase LC retention time” value [2, 3] was 12.6 min.

In the case of `CC(=O)OCC(=O)[C@@]1(O)CC[C@H]2[C@@H]3CCC4=CC(=O)CC[C@]4(C)[C@@]3(F)[C@@H](O)C[C@@]21C` [Fludrocortisone-21-acetate], the collision cross section [1, 4] is reported as 197.85 Å² and the “reversed-phase LC retention time” value [2, 4] is reported as 13.6 min.

With `O=c1[nH]nc(C(F)(F)F)s1` [Thiadone] the collision cross section [1, 4] was 115.69 Å² and the “reversed-phase LC retention time” value [2, 4] was 6.79 min.

With `O=C(O)C(F)(OC(F)(F)C(F)(F)C(F)(F)F)C(F)(F)F` (stereo not given) [HFPO-DA] the collision cross section [1, 4] was 206.28 Å² and the “reversed-phase LC retention time” value [2, 4] was 13 min.

In the case of `CC(C)NCC(O)COc1ccc(CC(=O)O)cc1` (stereo not given) [Metoprolol acid], the collision cross section [1, 3] is reported as 166.24 Å² and the “reversed-phase LC retention time” value [2, 3] is reported as 7.62 min.

For `N#Cc1c(Cl)c(Cl)c(S(=O)(=O)O)c(C(N)=O)c1Cl` [2-Amido-3,5,6-trichloro-4-cyanobenzenesulfonic acid], the collision cross section [1, 4] was 154.35 Å² and the “reversed-phase LC retention time” value [2, 4] was 7.02 min.

In the case of `CN(C)CCOC(c1ccccc1)c1ccccc1` [Diphenhydramine], the collision cross section [1, 3] is reported as 162.95 Å² and the “reversed-phase LC retention time” value [2, 3] is reported as 11.6 min.

For `c1ccc2nc3ccccc3cc2c1` [Acridine], the collision cross section [1, 3] was 132.33 Å² and the “reversed-phase LC retention time” value [2, 3] was 8.73 min.
